According to US11851428B2, “Activator of TREK (TWIK RElated K+channels) channels” (ONO PHARMACEUTICAL CO., LTD., priority 2016, dated 2023):
Where two headings read alike, the source gives them in different places.

Target: T1, human TREK-1 (Homo sapiens, UniProt O95069)
T1 construct: expressed in transfected cells
T1 sequence (O95069 1-426): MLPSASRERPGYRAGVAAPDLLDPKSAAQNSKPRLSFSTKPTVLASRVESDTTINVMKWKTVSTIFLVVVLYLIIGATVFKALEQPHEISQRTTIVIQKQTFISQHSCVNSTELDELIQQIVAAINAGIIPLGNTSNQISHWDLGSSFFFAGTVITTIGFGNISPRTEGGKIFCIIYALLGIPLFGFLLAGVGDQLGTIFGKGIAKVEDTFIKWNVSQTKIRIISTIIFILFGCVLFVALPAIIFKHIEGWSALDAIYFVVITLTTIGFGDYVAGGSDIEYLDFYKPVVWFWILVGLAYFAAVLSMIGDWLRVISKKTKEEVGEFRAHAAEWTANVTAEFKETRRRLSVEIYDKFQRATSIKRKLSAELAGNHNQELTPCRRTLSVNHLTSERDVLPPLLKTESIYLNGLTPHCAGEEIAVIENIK
Test: thallium flux assay (TREK1 activation normalized to BL-1249)
Type: cell-based
Settings: for activation at 30 µM: concentration of Example compound 30 μM
Experimental: The term “thallium flux assay” herein refers to a fluorescence-based assay used to monitor the activity of TREK channels. Thallium is a congener of potassium that readily fluxes through the pore of TREK channels. Thallium flux is measured using a commercially available, thallium-sensitive fluorescent dye called Thallos. The detail method is described below.
Method 1 (Thallium Flux Assay);
CHO-K1 cells stably expressing human TREK-1 or HEK293 cells stably expressing human TREK-2 are plated in 384-well plates, cultured overnight, loaded with Thallos dye the following day, treated with test compounds for 10 min, and then treated with thallium stimulus buffer to initiate thallium flux. The change in fluorescence at 25 seconds after thallium addition is normalized to baseline fluorescence (fluorescent intensity at 25 sec after Tl^+ addition)/(average of fluorescent intensity at pre-read).

[1] = concentration of Example compound 10 μM, normalized to 10 μM BL-1249, CHO-K1 cells stably expressing human TREK-1, read-out: TREK1 activation RBL-1249 (%)
[2] = concentration of Example compound 10 μM, normalized to 10 μM BL-1249, CHO-K1 cells stably expressing human TREK-1
[3] = normalized to 10 μM BL-1249, CHO-K1 cells stably expressing human TREK-1, read-out: TREK1 activation RBL-1249 (%)

Work on `O=C(NCc1ccc(OC(F)(F)F)cc1)c1ccc(-c2cnco2)cc1` [Example 2-6, 4-(1,3-oxazol-5-yl)-N-[4-(trifluoromethoxy)benzyl]benzamide] yielded an activation at 10 µM [1] of 32%.

`O=C(NCc1ccc(OC(F)(F)F)cc1)c1ccc(-c2nccs2)cc1` [Example 2-9, 4-(1,3-thiazol-2-yl)-N-+4-(trifluoromethoxy)benzyl+benzamide] was tested, and the “TREK1 activation RBL-1249 (%)” value [2] was 25%.

`O=C(NCc1ccc(OC(F)(F)F)cc1)c1ccc(-c2cnc[nH]2)cc1` [Example 2-10, 4-(1H-imidazol-5-yl)-N-[4-(trifluoromethoxy)benzyl]benzamide] showed an activation at 10 µM [1] of 46%.

In the case of `O=C(NCc1ccc(OC(F)(F)F)cc1)c1ccc(-c2nnco2)cc1` [Example 2-12, 4-(1,3,4-oxadiazol-2-yl)-N-[4-(trifluoromethoxy)benzyl]benzamide], the activation at 10 µM [1] is reported as 29%.

`O=C(NCc1ccc(OC(F)(F)F)cc1F)c1ccc(-n2cncn2)cc1` [Example 2-16, N-[2-fluoro-4-(trifluoromethoxy)benzyl]-4-(1H-1,2,4-triazol-1-yl)benzamide] was tested, and the activation at 10 µM [1] was 46%.

Compound `O=C(NCc1ccc(SC(F)(F)F)cc1)c1ccc(-n2cncn2)cc1` [Example 2-18, 4-(1H-1,2,4-triazol-1-yl)-N-{4-[(trifluoromethyl)thio]benzyl}benzamide] has an activation at 10 µM [1] of 39%.

With `O=C(NCc1ccc(OC(F)(F)F)c(F)c1)c1ccc(-c2nc[nH]n2)cc1` [Example 2-22, N-[3-fluoro-4-(trifluoromethoxy)benzyl]-4-(1H-1,2,4-triazol-3-yl)benzamide] the activation at 10 µM [1] was 66%.

`O=C(NCc1ccc(OC(F)(F)F)cc1F)c1ccc(-c2ncn[nH]2)cc1` [Example 2-24, N-[2-fluoro-4-(trifluoromethoxy)benzyl]-4-(1H-1,2,4-triazol-5-yl)benzamide] gave an activation at 10 µM [1] of 69%.

Work on `COc1cc(OC(F)(F)F)ccc1CNC(=O)c1ccc(-c2nc[nH]n2)cc1` [Example 2-25, N-[2-methoxy-4-(trifluoromethoxy)benzyl]-4-(1H-1,2,4-triazol-3-yl)benzamide] yielded an activation at 10 µM [1] of 48%.

`O=C(NCc1ccc(C(F)(F)F)cc1Cl)c1ccc(-c2nc[nH]n2)cc1` [Example 2-26, N-[2-chloro-4-(trifluoromethyl)benzyl]-4-(1H-1,2,4-triazol-3-yl)benzamide] gave an activation at 10 µM [1] of 76%.

`O=C(NCc1ccc(C(F)(F)F)cc1Cl)c1ccc(-c2cccnc2)cc1` [Example 2-28, N-[2-chloro-4-(trifluoromethyl)benzyl]-4-(3-pyridinyl)benzamide] showed an activation at 10 µM [1] of 22%.

With `COc1cc(OC(F)(F)F)ccc1CNC(=O)c1ccc(-c2ccccn2)nc1` [Example 2-29] the “TREK1 activation RBL-1249 (%)” value [2] was 51%.

`COc1cc(OC(F)(F)F)ccc1CNC(=O)c1ccc(-n2cncn2)nc1` [Example 2-30, N-[2-methoxy-4-(trifluoromethoxy)benzyl]-6-(1H-1,2,4-triazol-1-yl)nicotinamide] showed an activation at 10 µM [1] of 42%.

`O=C(NCc1ccc(OC(F)(F)F)cc1)c1nc(-c2ccccn2)cs1` [Example 2-32, 4-(2-pyridinyl)-N-[4-(trifluoromethoxy)benzyl]-1,3-thiazole-2-carboxamide] was tested, and the activation at 30 µM [3] was 38%.

Compound `Cc1cc(OC(F)(F)F)ccc1CNC(=O)c1ccc(-c2ncn[nH]2)cc1` [Example 2-34, N-[2-methyl-4-(trifluoromethoxy)benzyl]-4-(1H-1,2,4-triazol-5-yl)benzamide] has an activation at 10 µM [1] of 80%.

Compound `O=C(NCc1ccc(OC(F)(F)F)cc1F)c1ccc(-c2ncc[nH]2)cc1` [Example 2-36, N-[2-fluoro-4-(trifluoromethoxy)benzyl]-4-(1H-imidazol-2-yl)benzamide] has an activation at 10 µM [1] of 73%.

Work on `O=C(NCc1ccc(C(F)(F)F)cn1)c1ccc(-n2cccn2)cc1` [Example 2-37, 4-(1H-pyrazol-1-yl)-N-{[5-(trifluoromethyl)-2-pyridinyl]methyl}benzamide] yielded an activation at 30 µM [3] of 24%.

Work on `Cc1cc(OC(F)(F)F)ccc1CNC(=O)c1ccc(-n2cccn2)cc1` [Example 2-38, N-[2-methyl-4-(trifluoromethoxy)benzyl]-4-(1H-pyrazol-1-yl)benzamide] yielded an activation at 10 µM [1] of 55%.

Work on `COc1cc(OC(F)(F)F)ccc1CNC(=O)c1ccc(-n2cccn2)cc1` [Example 2-41, N-[2-methoxy-4-(trifluoromethoxy)benzyl]-4-(1H-pyrazol-1-yl)benzamide] yielded an activation at 10 µM [1] of 63%.

Compound `O=C(NCc1ccc(OC(F)(F)F)cc1)c1ccc(-c2ncccn2)cc1` [Example 2-47, 4-(2-pyrimidinyl)-N-[4-(trifluoromethoxy)benzyl]benzamide] has an activation at 10 µM [1] of 44%.

`O=C(NCc1ccc(Br)cc1Cl)c1ccc(-c2ncn[nH]2)cc1` [Example 2-49, N-(4-bromo-2-chlorobenzyl)-4-(1H-1,2,4-triazol-5-yl)benzamide] gave an activation at 10 µM [1] of 84%.

With `Cc1cc(C(=O)NCc2ccc(Br)cc2Cl)cn2ncnc12` [Example 3-2, N-(4-bromo-2-chlorobenzyl)-8-methyl[1,2,4]triazolo[1,5-a]pyridine-6-carboxamide] the activation at 30 µM [3] was 41%.

`Cc1nnc2cc(C(=O)NCc3ccc(OC(F)(F)F)c(F)c3)ccn12` [Example 3-3, N-[3-fluoro-4-(trifluoromethoxy)benzyl]-3-methyl[1,2,4]triazolo[4,3-a]pyridine-7-carboxamide] was tested, and the activation at 10 µM [1] was 67%.

Compound `Cc1nc2ccc(C(=O)NCc3ccc(OC(F)(F)F)cc3C)cn2n1` [Example 3-4, 2-methyl-N-[2-methyl-4-(trifluoromethoxy)benzyl][1,2,4]triazolo[1,5-a]pyridine-6-carboxamide] has an activation at 10 µM [1] of 89%.

`Cc1cc(OC(F)(F)F)ccc1CNC(=O)c1ccn2c(C)nnc2c1` [Example 3-5, 3-methyl-N-[2-methyl-4-(trifluoromethoxy)benzyl][1,2,4]triazolo[4,3-a]pyridine-7-carboxamide] showed an activation at 10 µM [1] of 89%.

`CS(=O)(=O)N1CCOc2cc(C(=O)NCc3ccc(Br)cc3Cl)ccc21` [Example 3-10, N-(4-bromo-2-chlorobenzyl)-4-(methylsulfonyl)-3,4-dihydro-2H-1,4-benzoxazine-7-carboxamide] was tested, and the activation at 30 µM [3] was 34%.

`COc1cc(OC(F)(F)F)ccc1CNC(=O)c1ccc(-c2noc(=O)[nH]2)cc1` [Example 4, N-[2-Methoxy-4-(trifluoromethoxy)benzyl]-4-(5-oxo-4,5-dihydro-1,2,4-oxadiazol-3-yl)benzamide] was tested, and the activation at 30 µM [3] was 77%.

`COc1cc(OC(F)(F)F)ccc1CNC(=O)c1ccc(-c2nnn[nH]2)cc1` [Example 5, N-[2-Methoxy-4-(trifluoromethoxy)benzyl]-4-(1H-tetrazol-5-yl)benzamide] showed an activation at 30 µM [3] of 79%.

Work on `O=C(Cc1ccc(OC(F)(F)F)cc1F)Nc1ccc2ncnn2c1` [Example 6, 2-[2-Fluoro-4-(trifluoromethoxy)phenyl]-N-([1,2,4]triazolo[1,5-a]pyridin-6-yl)acetamide] yielded an activation at 30 µM [3] of 19%.

With `O=C(NCc1ccc(Cl)cc1Cl)c1ccc(CN2CCOCC2)cc1` [Example 7, N-(2,4-Dichlorobenzyl)-4-(4-morpholinomethyl)benzamide] the activation at 30 µM [3] was 38%.

In the case of `COc1cc(OC(F)(F)F)ccc1CNC(=O)c1ccc(NS(C)(=O)=O)nc1` [Example 8-2, N-[2-methoxy-4-(trifluoromethoxy)benzyl]-6-[(methylsulfonyl)amino]nicotinamide], the activation at 30 µM [3] is reported as 48%.

Compound `O=C(NCc1ccc(OC(F)(F)F)cc1Cl)c1ccn2cnnc2c1` [Example 9, N-[[2-Chloro-4-(trifluoromethoxy)phenyl]methyl]-[1,2,4]triazolo[4,3-a]pyridine-7-carboxamide] has an activation at 10 µM [1] of 99%.

With `O=C(NCc1ccc(OC(F)(F)F)cc1Cl)c1ccc2ncnn2c1` [Example 9-2, N-[[2-chloro-4-(trifluoromethoxy)phenyl]methyl]-[1,2,4]triazolo[1,5-a]pyridine-6-carboxamide] the activation at 10 µM (CHO-K1, read-out: TREK1 activation RBL-1249 (%)) was 106%.

`Cn1nnc2cc(C(=O)NCc3ccc(OC(F)(F)F)cc3Cl)ccc21` [Example 9-4, N-[[2-chloro-4-(trifluoromethoxy)phenyl]methyl]-1-methylbenzotriazole-5-carboxamide] gave an activation at 10 µM [1] of 87%.

Work on `O=C(NCc1ccc(OC(F)(F)F)cc1Cl)c1ccc2[nH]nnc2c1` [Example 9-7, N-[[2-chloro-4-(trifluoromethoxy)phenyl]methyl]-1H-benzotriazole-5-carboxamide] yielded an activation at 10 µM [1] of 125%.

`O=C(NCc1ccc(OC(F)(F)F)cc1Cl)c1cnc2ccnn2c1` [Example 9-8, N-[[2-chloro-4-(trifluoromethoxy)phenyl]methyl]pyrazo1o[1,5-a]pyrimidine-6-carboxamide] was tested, and the “TREK1 activation RBL-1249 (%)” value [2] was 106%.

For `Cc1nnc2cc(C(=O)NCc3ccc(OC(F)(F)F)cc3Cl)ccn12` [Example 9-11], the “TREK1 activation RBL-1249 (%)” value [2] was 126%.
